What was measured:
[1] = 378 patients who received at least one dose; cited from earlier work
[2] = system: NCI-N87; assay: cells; format: cell-based; conditions: Homo sapiens, 120 h; NCI-N87 cells, five days co-incubation; read-out: IC50 (nM) NCI-N87
Description: (§1) MDA-MB-231, OV90, and NCI-N87 cells at defined cell densities (1,500 cells per well, 80 µL volume) were seeded into 96-well plates. The cells were cultured overnight in a constant-temperature incubator (37°C, 5% CO2). Ecteinascidin derivative solutions at a maximum concentration of 2 mM were first prepared in DMSO, and serial 1:4 gradient dilutions were performed. 1 µL of each DMSO-prepared dilution was added to 99 µL of PBS containing 10% FBS per well and mixed thoroughly. The diluted solutions (2 µL of diluted solution and 18 µL of PBS containing 10% FBS per well) were then co-incubated with the cells (37°C, 5% CO2) for five days, after which CellTiter-Glo reagent (40 µL per well) was added, and […] values were measured using an i3x microplate reader.

[3] = system: MDA-MB-231; assay: cells; format: cell-based; conditions: Homo sapiens, 120 h; MDA-MB-231 cells, five days co-incubation; read-out: IC50 (nM) MDA-MB-231
Description: as §1

[4] = system: OV90; assay: cells; format: cell-based; conditions: Homo sapiens, OV-90, 120 h; OV90 cells, five days co-incubation; read-out: IC50 (nM) OV90
Description: as §1

[5] = system: specific soft tissue sarcomas; conditions: cited from earlier work
[6] = system: MDA-MB-231, OV90, and NCI-N87 cells; assay: Tumor cell proliferation inhibition assay of novel ecteinascidin derivatives, summary over the three cell lines; format: cell-based; conditions: compared with trabectedin and lurbinectedin
Description: as §1, with “The” for “MDA-MB-231, OV90, and NCI-N87 cells at defined cell densities (1,500 cells per well, 80 µL volume) were seeded into 96-well plates. The”

Row | Structure (SMILES) | IC50 [2] | IC50 [3] | IC50 [4] | in-vitro cytotoxic activities [6] | further results
1 | COc1cc2c(cc1O)CCN[C@]21CS[C@@H]2c3c(OC(C)=O)c(C)c4c(c3[C@H](COC1=O)N1[C@@H]2[C@H]2c3c(cc(C)c(OC)c3O)C[C@@H]([C@@H]1O)N2C)OCO4 [Trabectedin] | < 1 nM | 1 to 10 nM | 10 to 200 nM |  | adverse reactions: constipation [1]: 37%; adverse reactions: decreased appetite [1]: 37%; adverse reactions: diarrhea [1]: 35%; adverse reactions: dyspnea [1]: 25%; adverse reactions: fatigue [1]: 69%; adverse reactions: headache [1]: 25%; adverse reactions: nausea [1]: 75%; adverse reactions: peripheral edema [1]: 28%; adverse reactions: vomiting [1]: 46%; grade 3-4 laboratory abnormalities: alanine transaminase (ALT) increase [1]: 31%; grade 3-4 laboratory abnormalities: anemia [1]: 19%; grade 3-4 laboratory abnormalities: aspartate transaminase (AST) increase [1]: 17%; grade 3-4 laboratory abnormalities: creatine kinase increase [1]: 6.4%; grade 3-4 laboratory abnormalities: neutropenia [1]: 43%; grade 3-4 laboratory abnormalities: thrombocytopenia [1]: 21%; HR ([5]; disease progression or death, 95% CI: 0.44-0.70, p<0.001): 0.55; median OS ([5]; more than 500 patients): 13.7 months; risk of disease progression or death was reduced ([5]; more than 500 patients): 45%; median PFS ([5]; more than 500 patients, n=345, 95% CI: 3.0-4.8 months): 4.2 months
2 | COc1c(C)cc2c(c1O)[C@@H]1[C@@H]3[C@@H]4SC[C@]5(NCCc6cc(N)c(C)cc65)C(=O)OC[C@@H](c5c6c(c(C)c(OC(C)=O)c54)OCO6)N3[C@@H](C#N)[C@H](C2)N1C [P172] | < 1 nM | < 1 nM | < 1 nM | superior to or comparable to those of trabectedin and lurbinectedin | 
3 | COc1c(C)cc2c(c1O)[C@@H]1[C@@H]3[C@@H]4SC[C@]5(NCCc6c5ccc(NC(=O)CO)c6OC)C(=O)OC[C@@H](c5c6c(c(C)c(OC(C)=O)c54)OCO6)N3[C@@H](C#N)[C@H](C2)N1C [P170] | < 1 nM | < 1 nM | < 1 nM | superior to or comparable to those of trabectedin and lurbinectedin | 
4 | COc1cc2c(cc1N)[C@H](O)CN[C@]21CS[C@@H]2c3c(OC(C)=O)c(C)c4c(c3[C@H](COC1=O)N1[C@@H]2[C@H]2c3c(cc(C)c(OC)c3O)C[C@@H]([C@@H]1C#N)N2C)OCO4 [P12] | < 1 nM | < 1 nM | < 1 nM | superior to or comparable to those of trabectedin and lurbinectedin | 
5 | COc1c(C)cc2c(c1O)[C@@H]1[C@@H]3[C@@H]4SC[C@]5(NCC(C)(C)c6cc(N)c(F)cc65)C(=O)OC[C@@H](c5c6c(c(C)c(OC(C)=O)c54)OCO6)N3[C@@H](C#N)[C@H](C2)N1C [T3] | < 1 nM | < 1 nM | < 1 nM | superior to or comparable to those of trabectedin and lurbinectedin | 
6 | COc1c(C)cc2c(c1O)[C@@H]1[C@@H]3[C@@H]4SC[C@]5(NCCc6cc(N)c(F)cc65)C(=O)OC[C@@H](c5c6c(c(C)c(OC(C)=O)c54)OCO6)N3[C@@H](C#N)[C@H](C2)N1C [P1] | < 1 nM | < 1 nM | < 1 nM | superior to or comparable to those of trabectedin and lurbinectedin | 
7 | COc1cc(N)cc2c1[C@@]1(CS[C@@H]3c4c(OC(C)=O)c(C)c5c(c4[C@H](COC1=O)N1[C@@H]3[C@H]3c4c(cc(C)c(OC)c4O)C[C@@H]([C@@H]1C#N)N3C)OCO5)NCC2 [T1] | < 1 nM | < 1 nM | < 1 nM | superior to or comparable to those of trabectedin and lurbinectedin | 
8 | COc1cc2c(cc1N)C(OC)CN[C@]21CS[C@@H]2c3c(OC(C)=O)c(C)c4c(c3[C@H](COC1=O)N1[C@@H]2[C@H]2c3c(cc(C)c(OC)c3O)C[C@@H]([C@@H]1C#N)N2C)OCO4 (stereo partly shown) [T10] | < 1 nM | < 1 nM | < 1 nM | superior to or comparable to those of trabectedin and lurbinectedin | 
9 | COc1cc2c(cc1NC(=O)C(O)C1CC1)CCN[C@]21CS[C@@H]2c3c(OC(C)=O)c(C)c4c(c3[C@H](COC1=O)N1[C@@H]2[C@H]2c3c(cc(C)c(OC)c3O)C[C@@H]([C@@H]1C#N)N2C)OCO4 (stereo partly shown) [P58] | < 1 nM | < 1 nM | < 1 nM | superior to or comparable to those of trabectedin and lurbinectedin | 
10 | COc1cc2c(cc1NC(=O)[C@H]1C[C@@H](O)C1)CCN[C@]21CS[C@@H]2c3c(OC(C)=O)c(C)c4c(c3[C@H](COC1=O)N1[C@@H]2[C@H]2c3c(cc(C)c(OC)c3O)C[C@@H]([C@@H]1C#N)N2C)OCO4 [P74] | < 1 nM | < 1 nM | < 1 nM | superior to or comparable to those of trabectedin and lurbinectedin | 
11 | COc1c(C)cc2c(c1O)[C@@H]1[C@@H]3[C@@H]4SC[C@]5(NCCc6c5ccc(N)c6OC)C(=O)OC[C@@H](c5c6c(c(C)c(OC(C)=O)c54)OCO6)N3[C@@H](C#N)[C@H](C2)N1C [P166] | < 1 nM | < 1 nM | < 1 nM | superior to or comparable to those of trabectedin and lurbinectedin | 
12 | COc1cc2c(cc1N)C(N(C)C)CN[C@]21CS[C@@H]2c3c(OC(C)=O)c(C)c4c(c3[C@H](COC1=O)N1[C@@H]2[C@H]2c3c(cc(C)c(OC)c3O)C[C@@H]([C@@H]1C#N)N2C)OCO4 (stereo partly shown) [P30] | < 1 nM | < 1 nM | < 1 nM | superior to or comparable to those of trabectedin and lurbinectedin | 
13 | COc1cc2c(cc1N)C1(CC1)CN[C@]21CS[C@@H]2c3c(OC(C)=O)c(C)c4c(c3[C@H](COC1=O)N1[C@@H]2[C@H]2c3c(cc(C)c(OC)c3O)C[C@@H]([C@@H]1C#N)N2C)OCO4 [P36] | < 1 nM | < 1 nM | < 1 nM | superior to or comparable to those of trabectedin and lurbinectedin | 
14 | COc1c(C)cc2c(c1O)[C@@H]1[C@@H]3[C@@H]4SC[C@]5(NC[C@H](O)c6cc(N)ccc65)C(=O)OC[C@@H](c5c6c(c(C)c(OC(C)=O)c54)OCO6)N3[C@@H](C#N)[C@H](C2)N1C [P10] | < 1 nM | < 1 nM | < 1 nM | superior to or comparable to those of trabectedin and lurbinectedin | 
15 | COc1cc2c(cc1NC(=O)CO)C(C)(C)CN[C@]21CS[C@@H]2c3c(OC(C)=O)c(C)c4c(c3[C@H](COC1=O)N1[C@@H]2[C@H]2c3c(cc(C)c(OC)c3O)C[C@@H]([C@@H]1C#N)N2C)OCO4 [P96] | < 1 nM | < 1 nM | < 1 nM | superior to or comparable to those of trabectedin and lurbinectedin | 
16 | COc1cc2c(cc1N)C(C)(C)CN[C@]21CS[C@@H]2c3c(OC(C)=O)c(C)c4c(c3[C@H](COC1=O)N1[C@@H]2[C@H]2c3c(cc(C)c(OC)c3O)C[C@@H]([C@@H]1O)N2C)OCO4 [P52] | < 1 nM | < 1 nM | < 1 nM | superior to or comparable to those of trabectedin and lurbinectedin | 
17 | COc1cc2c(cc1N)C(C)(C)CN[C@]21CS[C@@H]2c3c(OC(C)=O)c(C)c4c(c3[C@H](COC1=O)N1[C@@H]2[C@H]2c3c(cc(C)c(OC)c3O)C[C@@H]([C@@H]1C#N)N2C)OCO4 [P19] | < 1 nM | < 1 nM | < 1 nM | superior to or comparable to those of trabectedin and lurbinectedin | 
18 | COc1cc2c(cc1NC(=O)[C@H]1C[C@H](O)C1)CCN[C@]21CS[C@@H]2c3c(OC(C)=O)c(C)c4c(c3[C@H](COC1=O)N1[C@@H]2[C@H]2c3c(cc(C)c(OC)c3O)C[C@@H]([C@@H]1C#N)N2C)OCO4 [P75] | < 1 nM | < 1 nM | < 1 nM | superior to or comparable to those of trabectedin and lurbinectedin | 
19 | COc1c(C)cc2c(c1O)[C@@H]1[C@@H]3[C@@H]4SC[C@]5(NCCc6cc(NC(=O)C7(O)CC7)c(F)cc65)C(=O)OC[C@@H](c5c6c(c(C)c(OC(C)=O)c54)OCO6)N3[C@@H](C#N)[C@H](C2)N1C [T4] | < 1 nM | < 1 nM | < 1 nM | superior to or comparable to those of trabectedin and lurbinectedin | 
